Series [1] deals with Staphylococcus aureus. The series can be described thus: Ratio of MIC for quinolone-resistant Staphylococcus aureus MS5935 to MIC for quinolone-sensitive Staphylococcus aureus. The series is classed as functional.
Series [2] has as its system Staphylococcus aureus. The series is described as follows: Antibacterial activity against quinolone-resistant Staphylococcus aureus MS5935. Format: functional.
In series [3] the test system is Staphylococcus aureus. The series is described as follows: Antibacterial activity against quinolone-sensitive Staphylococcus aureus MS5935.
Series [4] relates to Staphylococcus aureus. The series is described as follows: Antibacterial activity against Staphylococcus aureus. Format: functional.
Series [5] has as its system Streptococcus pneumoniae. The series is described as follows: Antibacterial activity against Streptococcus pneumoniae. Format: functional.
For series [6], the system named is Staphylococcus aureus. The series is described as follows: Antibacterial activity against Staphylococcus aureus Smith. The series is classed as functional. The note with it: Staphylococcus aureus, Smith; read-out: MIC.
The test system of series [7] is Streptococcus pneumoniae. The series can be described thus: Antibacterial activity against Streptococcus pneumoniae IID554. The series is classed as functional. The note with it: Streptococcus pneumoniae, IID554; read-out: MIC.
In a further series the test system is Enterococcus faecalis. The series can be described thus: Antibacterial activity against Enterococcus faecalis ATCC 29212. The series is classed as functional. The note with it: Enterococcus faecalis, ATCC 29212; read-out: MIC.
The next series concerns Escherichia coli. The series can be described thus: Antibacterial activity against Escherichia coli ATCC 25922. Format: functional. The note with it: Escherichia coli, ATCC 25922; read-out: MIC.
A further series relates to Acinetobacter baumannii. The series is described as follows: Antibacterial activity against Acinetobacter baumannii IID876. Format: functional. The note with it: Acinetobacter baumannii, IID876; read-out: MIC.
In a further series the test system is Pseudomonas aeruginosa. The series is described as follows: Antibacterial activity against Pseudomonas aeruginosa PAO1. The series is classed as functional. The note with it: Pseudomonas aeruginosa, PAO1; read-out: MIC.
The target of series [8] is T1, Voltage-gated inwardly rectifying potassium channel KCNH2 (Homo sapiens, UniProt Q12809). The series can be described thus: Displacement of MK499 from human ERG.
T1 sequence (Q12809 whole entry): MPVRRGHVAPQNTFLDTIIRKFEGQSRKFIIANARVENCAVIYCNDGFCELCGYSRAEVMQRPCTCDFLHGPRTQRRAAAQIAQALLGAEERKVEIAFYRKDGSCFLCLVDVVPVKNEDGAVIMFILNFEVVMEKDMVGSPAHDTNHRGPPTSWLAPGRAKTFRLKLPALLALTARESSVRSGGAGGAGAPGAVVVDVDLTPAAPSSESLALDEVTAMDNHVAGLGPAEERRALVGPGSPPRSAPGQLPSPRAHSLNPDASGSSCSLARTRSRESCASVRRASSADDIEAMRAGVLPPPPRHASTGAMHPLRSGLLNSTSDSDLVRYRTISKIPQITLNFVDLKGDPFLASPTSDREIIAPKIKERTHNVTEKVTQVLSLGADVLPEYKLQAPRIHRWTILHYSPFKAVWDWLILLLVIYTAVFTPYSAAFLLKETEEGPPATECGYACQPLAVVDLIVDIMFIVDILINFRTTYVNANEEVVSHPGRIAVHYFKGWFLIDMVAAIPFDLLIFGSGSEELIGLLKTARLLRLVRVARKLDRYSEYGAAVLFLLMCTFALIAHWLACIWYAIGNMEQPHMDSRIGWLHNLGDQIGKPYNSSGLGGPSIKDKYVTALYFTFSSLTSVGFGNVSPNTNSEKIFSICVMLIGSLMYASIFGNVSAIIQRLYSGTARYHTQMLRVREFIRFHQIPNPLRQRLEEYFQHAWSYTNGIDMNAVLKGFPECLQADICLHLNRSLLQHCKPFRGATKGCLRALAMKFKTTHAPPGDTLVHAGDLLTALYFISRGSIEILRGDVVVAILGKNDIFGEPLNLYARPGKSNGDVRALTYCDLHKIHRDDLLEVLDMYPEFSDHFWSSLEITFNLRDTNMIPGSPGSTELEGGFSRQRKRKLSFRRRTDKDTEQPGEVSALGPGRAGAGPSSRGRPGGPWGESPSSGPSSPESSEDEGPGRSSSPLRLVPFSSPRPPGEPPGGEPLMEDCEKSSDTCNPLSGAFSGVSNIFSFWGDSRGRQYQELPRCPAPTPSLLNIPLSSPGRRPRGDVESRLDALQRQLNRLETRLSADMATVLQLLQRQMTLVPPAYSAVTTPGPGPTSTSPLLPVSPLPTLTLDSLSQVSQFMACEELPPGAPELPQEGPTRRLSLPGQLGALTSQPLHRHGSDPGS
Series [9] has as its target T1, Voltage-gated inwardly rectifying potassium channel KCNH2. The series is described as follows: Inhibition of human ERG expressed in CHO cells measured over 5 mins by patch clamp assay.
Another series deals with Enterococcus faecium. The series can be described thus: Antibacterial activity against VanA-type vancomycin-resistant Enterococcus faecium A2373. Format: functional. The note with it: Enterococcus faecium, A2373; read-out: MIC.
Series [10] relates to Staphylococcus aureus. The series can be described thus: Antibacterial activity against Staphylococcus aureus Smith infected in iv dosed CD1 mouse administered at 0.5 hrs post infection. Format: functional.
Series [11] deals with Staphylococcus aureus. The series is described as follows: Antibacterial activity against Staphylococcus aureus Smith infected in po dosed CD1 mouse administered at 0.5 hrs post infection. The series is classed as functional.
Another series concerns Mus musculus. The series can be described thus: Dose normalized AUC in C57BL/6 mouse at 1 mg/kg, iv and 2 mg/kg, po. Format: ADME, organism-based. The note with it: in vivo.
Series [12] is described as follows: Plasma clearance in C57BL/6 mouse at 1 mg/kg, iv and 2 mg/kg, po. The series is classed as ADME, organism-based.
A short description of series [13]: Volume of distribution at steady state in C57BL/6 mouse at 1 mg/kg, iv and 2 mg/kg, po. Format: ADME, organism-based. The note with it: in vivo, read-out: Vdss.
Series [14] in a line: Half life in C57BL/6 mouse at 1 mg/kg, iv and 2 mg/kg, po. The note with it: in vivo. The series is classed as ADME, organism-based.
The nature of series [15]: Oral bioavailability in C57BL/6 mouse at 2 mg/kg. Format: ADME, organism-based. The note with it: in vivo.
The test system of series [16] is Staphylococcus aureus. The series is described as follows: Antibacterial activity against Staphylococcus aureus Smith infected in iv dosed ICR mouse assessed as survival rate administered at 1 hr post infection measured over 7 days. The series is classed as functional.
Series [17] relates to Staphylococcus aureus. The series is described as follows: Antibacterial activity against Staphylococcus aureus Smith infected in po dosed ICR mouse assessed as survival rate administered at 1 hr post infection measured over 7 days. The series is classed as functional.

≈ marks a conversion by molar mass, not a printed value.

As usually defined, the MIC is the least concentration at which growth counts as inhibited. For the molecule `C[C@H]1COc2c(N3CCN(C)CC3)c(F)cc3c(=O)c(C(=O)O)cn1c23.C[C@H]1COc2c(N3CCN(C)CC3)c(F)cc3c(=O)c(C(=O)O)cn1c23.O` [LEVOFLOXACIN], the Ratio in the series on Staphylococcus aureus [1] is given as over 64. Also, the figures for the MIC against Staphylococcus aureus [2] and in the series with Staphylococcus aureus [3] were over 16 µg/mL and 0.25 µg/mL, respectively.

As usually defined, the MIC90 is an inhibitory concentration at the 90% level, which refers to growth in some studies and to a panel of isolates in others. Read a high MIC90 as weaker potency. On to `O=c1ccc2ncc(=O)n3c2n1C[C@H]3CN1CCC(NCc2cc3c(cn2)OCCC3)CC1` [GEPOTIDACIN], for which the MIC90 against Staphylococcus aureus [4] amounted to 0.5 µg/mL (≈ 1.11 µM); against Streptococcus pneumoniae [5], 0.25 µg/mL (≈ 0.557 µM).

The IC50 is the concentration at which inhibition is half-maximal. Low values mean greater potency, high ones weaker potency. As usually defined, the half-life is how long it takes for the measured level to halve. Read a high half-life as slow decline. The bioavailability is dose-corrected exposure relative to a reference, in per cent. A high value points to much systemic uptake. Consider `O=C1COc2cc(F)c(CNC34CCC(C[C@]5(O)Cn6c(=O)ccc7ncc(F)c5c76)(CC3)OC4)nc2N1`, for which the MIC in the series with Staphylococcus aureus [6] came to 0.5 µg/mL (≈ 0.951 µM); with Streptococcus pneumoniae [7] it was 2 µg/mL (≈ 3.81 µM); in the series on Enterococcus faecalis, 4 µg/mL (≈ 7.61 µM); in the series with Escherichia coli, 8 µg/mL (≈ 15.2 µM); in the series with Acinetobacter baumannii, 8 µg/mL (≈ 15.2 µM); with Pseudomonas aeruginosa, 16 µg/mL (≈ 30.4 µM). Also, the MIC in the series on Enterococcus faecium is 16 µg/mL (≈ 30.4 µM). Further, the IC50 was over 60 µM in [8] and 333 µM in series [9]. In the series on Staphylococcus aureus [1], the Ratio is recorded as under 4. The ED90 with Staphylococcus aureus [10] came out at 12 mg/kg; with Staphylococcus aureus [11], 15 mg/kg. In addition, the AUC/dose in the series on Mus musculus was determined as 2.1 µM·h/mg/kg. In addition, in series [12], the clearance amounted to 15 mL/min/kg. Moreover, the Vd in [13] stood at 1.3 L/kg. The half-life in series [14] was 1.7 h. Further, the bioavailability in series [15] came to 39%.

For orientation: ED50 means the dose that gives a 50% effect, or the effect in half of the subjects. As to `O=c1ccc2ncc(F)c3c2n1C[C@@]3(O)CC12CCC(NCc3cc4c(cn3)OCCO4)(CC1)CO2`, the MIC worked out at 0.5 µg/mL (≈ 1.01 µM) in the series on Staphylococcus aureus [6]; 2 µg/mL (≈ 4.04 µM) in the series on Streptococcus pneumoniae [7]; 8 µg/mL (≈ 16.2 µM) in the series with Enterococcus faecalis; 16 µg/mL (≈ 32.4 µM) in the series with Escherichia coli; 8 µg/mL (≈ 16.2 µM) in the series on Acinetobacter baumannii; 16 µg/mL (≈ 32.4 µM) in the series with Pseudomonas aeruginosa. The MIC with Enterococcus faecium turned out to be 16 µg/mL (≈ 32.4 µM). The same molecule had an ED90 in the series with Staphylococcus aureus [10] of 12 mg/kg. Besides, the ED50 with Staphylococcus aureus [16] was 11 mg/kg; in the series on Staphylococcus aureus [17], 5.1 mg/kg. Also, in the series with Mus musculus, the AUC/dose was determined as 0.5 µM·h/mg/kg. This molecule returned a clearance in series [12] of 47 mL/min/kg. In addition, the Vd in [13] was 17 L/kg. In series [14], this molecule showed a half-life of 2 h. Further, the bioavailability in series [15] came to 60%.

For the origin of these results see ChEMBL document CHEMBL3425423, “Hydroxy tricyclic 1,5-naphthyridinone oxabicyclooctane-linked novel bacterial topoisomerase inhibitors as broad-spectrum antibacterial agents-SAR of RHS moiety (Part-3)” (Bioorg Med Chem Lett, 2015).
